ChEMBL document CHEMBL1158195, “Antitumor germacranolides from Anvillea garcinii” (1996)
In brackets after ≈: the same amount, converted by molar mass. Activity calls are given as the source filed them. The calls are words filed in the database; no cut-off is given here.

Experiments:
ACHN = experiment: Cytotoxicity against human ACHN cells; format: functional; conditions: read-out: ED50 (the source's name)
SW-620 = experiment: Cytotoxicity against human SW620 cells; format: functional; conditions: read-out: ED50 (the source's name)
SF-268 = experiment: Cytotoxicity against human SF268 cells; format: functional; conditions: read-out: ED50 (the source's name)
NCI-H522 = experiment: Cytotoxicity against human NCI-H522 cells; format: functional; conditions: read-out: ED50 (the source's name)
CCRF-CEM = experiment: Cytotoxicity against human CCRF-CEM cells; format: functional; conditions: read-out: ED50 (the source's name)
HOP-62 = experiment: Cytotoxicity against human HOP62 cells; format: functional; conditions: read-out: ED50 (the source's name)
UO-31 = experiment: Cytotoxicity against human UO31 cells; format: functional; conditions: read-out: ED50 (the source's name)
[1] = test system: Human immunodeficiency virus; experiment: Antiviral activity against HIV in human H9 cells assessed as virus-induced cytopathic effect; format: functional, organism-based
LOX IMVI = experiment: Cytotoxicity against human LOXIMVI cells; format: functional; conditions: read-out: ED50 (the source's name)
MOLT-4 = experiment: Cytotoxicity against human MOLT4 cells; format: functional; conditions: read-out: ED50 (the source's name)
IGROV-1 = experiment: Cytotoxicity against human IGROV1 cells; format: functional; conditions: read-out: ED50 (the source's name)
Malme-3M = experiment: Cytotoxicity against human MALME-3M cells; format: functional; conditions: read-out: ED50 (the source's name)
DU-145 = experiment: Cytotoxicity against human DU145 cells; format: functional; conditions: read-out: ED50 (the source's name)
MDA-MB-231 = experiment: Cytotoxicity against human MDA-MB-231 cells; format: functional; conditions: read-out: ED50 (the source's name)
OVCAR-8 = experiment: Cytotoxicity against human OVCAR8 cells; format: functional; conditions: read-out: ED50 (the source's name)
SNB-75 = experiment: Cytotoxicity against human SNB75 cells; format: functional; conditions: read-out: ED50 (the source's name)
HCT-116 = experiment: Cytotoxicity against human HCT116 cells; format: functional; conditions: read-out: ED50 (the source's name)
PC-3 = experiment: Cytotoxicity against human PC3 cells; format: functional; conditions: read-out: ED50 (the source's name)
BT-549 = experiment: Cytotoxicity against human BT549 cells; format: functional; conditions: read-out: ED50 (the source's name)
T47D = experiment: Cytotoxicity against human T47D cells; format: functional; conditions: read-out: ED50 (the source's name)

`C=C1C(=O)O[C@H]2[C@H]1C[C@H](O)/C(C)=C/CC[C@@]1(C)O[C@@H]21` showed an EC50 (ACHN) of 2.21 mg/L (≈ 8.36 µM), an EC50 (SW-620) of 0.55 mg/L (≈ 2.08 µM) and an EC50 (SF-268) of 7.76 mg/L (≈ 29.4 µM). The EC50 (NCI-H522) was 0.45 mg/L (≈ 1.7 µM), the EC50 (CCRF-CEM) was 0.8 mg/L (≈ 3.03 µM) and the EC50 (HOP-62) was 4.57 mg/L (≈ 17.3 µM). For the same compound, the EC50 (UO-31) was 3.88 mg/L (≈ 14.7 µM), the Activity [1] was “inactive” and the EC50 (LOX IMVI) was 2.46 mg/L (≈ 9.31 µM). For the same compound, the EC50 (MOLT-4) was 0.68 mg/L (≈ 2.57 µM), the EC50 (IGROV-1) was 3.91 mg/L (≈ 14.8 µM) and the EC50 (Malme-3M) was 1.62 mg/L (≈ 6.13 µM). For the same compound, the EC50 (DU-145) was 5.6 mg/L (≈ 21.2 µM), the EC50 (MDA-MB-231) was 4.99 mg/L (≈ 18.9 µM) and the EC50 (OVCAR-8) was 4.75 mg/L (≈ 18 µM). The EC50 (SNB-75) was 8.53 mg/L (≈ 32.3 µM) and the EC50 (HCT-116) was 3.83 mg/L (≈ 14.5 µM).
With `C=C1C(=O)O[C@H]2[C@H]1C[C@@H](O)[C@@]1(C)O[C@@H]1CC[C@@]1(C)O[C@@H]21` the EC50 (ACHN) was 3.84 mg/L (≈ 13.7 µM), the EC50 (SW-620) was 3.72 mg/L (≈ 13.3 µM) and the EC50 (SF-268) was 13.5 mg/L (≈ 48.1 µM). It also gave an EC50 (NCI-H522) of 1.53 mg/L (≈ 5.46 µM), an EC50 (CCRF-CEM) of 1.44 mg/L (≈ 5.14 µM) and an EC50 (HOP-62) of 4.82 mg/L (≈ 17.2 µM). For the same compound, the EC50 (UO-31) was 4.76 mg/L (≈ 17 µM), the Activity [1] was “inactive” and the EC50 (LOX IMVI) was 3.7 mg/L (≈ 13.2 µM). The EC50 (MOLT-4) was 1.67 mg/L (≈ 5.96 µM), the EC50 (Malme-3M) was 3.28 mg/L (≈ 11.7 µM) and the EC50 (DU-145) was 10.2 mg/L (≈ 36.5 µM). It also gave an EC50 (MDA-MB-231) of 5.35 mg/L (≈ 19.1 µM), an EC50 (OVCAR-8) of 9.72 mg/L (≈ 34.7 µM) and an EC50 (SNB-75) of 20.8 mg/L (≈ 74 µM). It also gave an EC50 (HCT-116) of 4.96 mg/L (≈ 17.7 µM) and an EC50 (PC-3) of 7.59 mg/L (≈ 27.1 µM).
`C=C1C(=O)O[C@H]2[C@H]1C[C@H](O)[C@@]1(C)O[C@@H]1CC[C@@]1(C)O[C@@H]21` was tested, and the EC50 (ACHN) was 5.07 mg/L (≈ 18.1 µM), the EC50 (SW-620) was 3.81 mg/L (≈ 13.6 µM) and the EC50 (SF-268) was 12.1 mg/L (≈ 43.2 µM). It also gave an EC50 (NCI-H522) of 0.78 mg/L (≈ 2.78 µM), an EC50 (BT-549) of 3.86 mg/L (≈ 13.8 µM) and an EC50 (CCRF-CEM) of 2.43 mg/L (≈ 8.67 µM). The EC50 (HOP-62) was 5.74 mg/L (≈ 20.5 µM), the EC50 (UO-31) was 4.79 mg/L (≈ 17.1 µM) and the Activity [1] was “inactive”. The EC50 (MOLT-4) was 2.83 mg/L (≈ 10.1 µM), the EC50 (IGROV-1) was 4.17 mg/L (≈ 14.9 µM) and the EC50 (Malme-3M) was 3.36 mg/L (≈ 12 µM). It also gave an EC50 (DU-145) of 9.66 mg/L (≈ 34.5 µM), an EC50 (OVCAR-8) of 5.32 mg/L (≈ 19 µM) and an EC50 (T47D) of 5.4 mg/L (≈ 19.3 µM). It also gave an EC50 (SNB-75) of 22.5 mg/L (≈ 80.3 µM), an EC50 (HCT-116) of 4.65 mg/L (≈ 16.6 µM) and an EC50 (PC-3) of 4.98 mg/L (≈ 17.8 µM).
`C=C1C(=O)O[C@H]2[C@H]1CC(=O)/C(C)=C/CC[C@@]1(C)O[C@@H]21` was tested, and the EC50 (ACHN) was 0.3 mg/L (≈ 1.14 µM), the EC50 (SW-620) was 0.21 mg/L (≈ 0.801 µM) and the EC50 (SF-268) was 1.73 mg/L (≈ 6.6 µM). The EC50 (NCI-H522) was 0.15 mg/L (≈ 0.572 µM), the EC50 (BT-549) was 0.34 mg/L (≈ 1.3 µM) and the EC50 (CCRF-CEM) was 0.05 mg/L (≈ 0.191 µM). The EC50 (HOP-62) was 0.63 mg/L (≈ 2.4 µM), the EC50 (UO-31) was 0.28 mg/L (≈ 1.07 µM) and the Activity [1] was “inactive”. For the same compound, the EC50 (LOX IMVI) was 0.11 mg/L (≈ 0.419 µM), the EC50 (MOLT-4) was 0.07 mg/L (≈ 0.267 µM) and the EC50 (IGROV-1) was 0.94 mg/L (≈ 3.58 µM). It also gave an EC50 (Malme-3M) of 0.33 mg/L (≈ 1.26 µM), an EC50 (DU-145) of 3.3 mg/L (≈ 12.6 µM) and an EC50 (MDA-MB-231) of 0.17 mg/L (≈ 0.648 µM). It also gave an EC50 (OVCAR-8) of 0.78 mg/L (≈ 2.97 µM), an EC50 (T47D) of 0.45 mg/L (≈ 1.72 µM) and an EC50 (SNB-75) of 4.38 mg/L (≈ 16.7 µM). It also gave an EC50 (HCT-116) of 0.45 mg/L (≈ 1.72 µM) and an EC50 (PC-3) of 0.9 mg/L (≈ 3.43 µM).
`C=C1C(=O)O[C@H]2[C@H]1C[C@@H](O)/C(C)=C/CC[C@@]1(C)O[C@@H]21` was tested, and the EC50 (ACHN) was 1.91 mg/L (≈ 7.23 µM), the EC50 (SW-620) was 1.08 mg/L (≈ 4.09 µM) and the EC50 (SF-268) was 10.3 mg/L (≈ 39 µM). The EC50 (NCI-H522) was 0.5 mg/L (≈ 1.89 µM), the EC50 (BT-549) was 2.77 mg/L (≈ 10.5 µM) and the EC50 (CCRF-CEM) was 0.84 mg/L (≈ 3.18 µM). The EC50 (HOP-62) was 1.32 mg/L (≈ 4.99 µM), the EC50 (UO-31) was 7.63 mg/L (≈ 28.9 µM) and the Activity [1] was “inactive”. For the same compound, the EC50 (LOX IMVI) was 1.66 mg/L (≈ 6.28 µM), the EC50 (MOLT-4) was 0.94 mg/L (≈ 3.56 µM) and the EC50 (IGROV-1) was 8.63 mg/L (≈ 32.6 µM). The EC50 (Malme-3M) was 1.07 mg/L (≈ 4.05 µM), the EC50 (DU-145) was 6.73 mg/L (≈ 25.5 µM) and the EC50 (MDA-MB-231) was 4.49 mg/L (≈ 17 µM). For the same compound, the EC50 (OVCAR-8) was 4.07 mg/L (≈ 15.4 µM), the EC50 (T47D) was 1.54 mg/L (≈ 5.83 µM) and the EC50 (HCT-116) was 1.66 mg/L (≈ 6.28 µM). For the same compound, the EC50 (PC-3) was 11.6 mg/L (≈ 44 µM).
